Assay results: the supplement of paper PMC10307832

Legend:
Experiment in all cases: relative viability (nuclei count vs DMSO), 5 days (fraction); higher = more cells survive
Neratinib + AZD7762 = compound: CCOc1cc2ncc(C#N)c(Nc3ccc(OCc4ccccn4)c(Cl)c3)c2cc1NC(=O)/C=C/CN(C)C [Neratinib] + NC(=O)Nc1cc(-c2cccc(F)c2)sc1C(=O)N[C@H]1CCCNC1 [AZD7762] (partner 0.2 µM)
How it was run: (§1)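 The day after seeding in 1536-well plates, lung cancer cell lines were treated by pin tool with a single drug, or with a fixed anchor-drug dose together with five library-drug doses (not always all listed) in √10 steps. After 5 days, a combined fix-and-stain solution (final 0.05% Triton X-100, 1% formaldehyde, 1 ug/ml Hoechst) was added. Nuclei counted on 4× images gave relative viability as treated counts over vehicle counts, reported as the median of duplicate plates.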

Neratinib + Tozasertib = compound: CCOc1cc2ncc(C#N)c(Nc3ccc(OCc4ccccn4)c(Cl)c3)c2cc1NC(=O)/C=C/CN(C)C [Neratinib] + Cc1cc(Nc2cc(N3CCN(C)CC3)nc(Sc3ccc(NC(=O)C4CC4)cc3)n2)n[nH]1 [Tozasertib] (partner 0.1 µM)
How it was run: as §1

Neratinib + Foretinib = compound: CCOc1cc2ncc(C#N)c(Nc3ccc(OCc4ccccn4)c(Cl)c3)c2cc1NC(=O)/C=C/CN(C)C [Neratinib] + COc1cc2c(Oc3ccc(NC(=O)C4(C(=O)Nc5ccc(F)cc5)CC4)cc3F)ccnc2cc1OCCCN1CCOCC1 [Foretinib] (partner 0.25 µM)
How it was run: as §1

Neratinib + Luminespib = compound: CCOc1cc2ncc(C#N)c(Nc3ccc(OCc4ccccn4)c(Cl)c3)c2cc1NC(=O)/C=C/CN(C)C [Neratinib] + CCNC(=O)c1noc(-c2cc(C(C)C)c(O)cc2O)c1-c1ccc(CN2CCOCC2)cc1 [Luminespib] (partner 0.01 µM)
How it was run: as §1

Row | Cell Line | relative viability (Neratinib + AZD7762; first compound 0.01 µM) | relative viability (Neratinib + AZD7762; first compound 0.03162 µM) | relative viability (Neratinib + AZD7762; first compound 0.1 µM) | relative viability (Neratinib + AZD7762; first compound 0.3162 µM) | relative viability (Neratinib + AZD7762; first compound 1 µM) | relative viability (Neratinib + Tozasertib; first compound 0.01 µM) | relative viability (Neratinib + Tozasertib; first compound 0.03162 µM) | relative viability (Neratinib + Tozasertib; first compound 0.1 µM) | relative viability (Neratinib + Tozasertib; first compound 0.3162 µM) | relative viability (Neratinib + Tozasertib; first compound 1 µM) | relative viability (Neratinib + Foretinib; first compound 0.01 µM) | relative viability (Neratinib + Foretinib; first compound 0.03162 µM) | relative viability (Neratinib + Foretinib; first compound 0.1 µM) | relative viability (Neratinib + Foretinib; first compound 0.3162 µM) | relative viability (Neratinib + Luminespib; first compound 0.01 µM) | relative viability (Neratinib + Luminespib; first compound 0.03162 µM) | relative viability (Neratinib + Luminespib; first compound 0.1 µM) | relative viability (Neratinib + Luminespib; first compound 0.3162 µM) | relative viability (Neratinib + Luminespib; first compound 1 µM) | relative viability (Neratinib + Foretinib; first compound 1 µM)
1 | 201T | 0.672 | 0.618 | 0.447 | 0.59 | 0.527 | 1.14 | 0.945 | 0.848 | 0.858 | 0.766 | 1.06 | 1.12 | 0.797 | 0.995 | 1.08 | 1.02 | 0.977 | 1.1 | 0.931 | –
2 | A549 | – | – | – | – | – | – | – | – | – | – | 0.969 | 0.927 | – | 0.832 | – | – | – | – | – | 0.54
3 | A-427 | 0.811 | 0.725 | 0.704 | 0.729 | 0.338 | 0.234 | 0.246 | 0.177 | 0.214 | 0.145 | 1.05 | – | 0.972 | 0.935 | 1.23 | 0.966 | 0.778 | 1.02 | 0.274 | 0.255
4 | ABC-1 | 0.955 | 0.659 | 0.682 | 0.779 | – | 0.206 | 0.139 | 0.177 | 0.146 | 0.185 | 1.16 | 1.12 | 0.689 | 0.954 | 0.337 | 0.659 | 0.405 | 0.315 | 0.278 | 0.466
5 | BEN | 0.745 | 0.804 | 0.628 | 0.571 | 0.596 | 0.559 | 0.576 | 0.416 | 0.517 | 0.447 | 0.66 | 0.631 | 0.822 | 0.657 | 0.605 | 0.367 | 0.378 | 0.307 | 0.243 | 0.498
6 | CAL-12T | 0.616 | 0.695 | 0.556 | – | 0.646 | 0.487 | 0.288 | 0.249 | 0.178 | 0.122 | 1.04 | 1.12 | 0.979 | 0.824 | 0.445 | 0.393 | 0.291 | 0.104 | 0.123 | 0.284
7 | COR-L23 | – | – | – | – | – | 0.216 | 0.217 | 0.193 | 0.186 | 0.176 | 1.09 | 1.03 | 0.946 | 0.966 | – | 0.621 | 0.598 | 0.606 | 0.257 | 0.837
8 | COR-L 105 | – | – | – | – | – | 0.41 | 0.418 | 0.375 | 0.251 | 0.186 | 0.995 | 1.28 | 0.54 | 0.324 | 0.862 | 0.669 | 0.53 | 0.35 | 0.203 | 0.284
9 | Calu-6 | – | – | – | – | – | – | – | – | – | – | 0.929 | 0.891 | 0.736 | 0.85 | – | – | – | – | – | 0.513
10 | ChaGo-K-1 | 0.93 | 0.879 | 0.648 | 0.842 | 0.788 | 0.233 | 0.224 | 0.221 | 0.215 | 0.229 | 0.945 | 1.07 | 0.884 | 0.888 | 0.753 | 0.672 | 0.604 | 0.595 | – | 0.718
11 | EBC-1 | – | – | – | – | – | – | – | – | – | – | 0.102 | 0.0886 | 0.111 | 0.113 | – | – | – | – | – | 0.0982
12 | EKVX | 0.726 | 0.699 | 0.609 | 0.441 | 0.199 | 0.416 | 0.42 | 0.345 | 0.197 | 0.13 | 0.697 | 0.952 | 0.578 | 0.567 | 0.821 | 0.884 | 0.708 | 0.496 | 0.246 | 0.193
13 | EMC-BAC-2 | 1.19 | 1.19 | 1 | 1.08 | 0.974 | 0.326 | 0.352 | 0.317 | 0.314 | 0.188 | 1.19 | 0.99 | 0.669 | – | 1.38 | 1.17 | 1.08 | 0.976 | 0.597 | 0.54
14 | EPLC-272H | 0.209 | 0.193 | 0.112 | 0.181 | 0.205 | – | 0.204 | 0.267 | 0.269 | 0.203 | – | 0.431 | 0.45 | 0.419 | – | 0.616 | 0.464 | 0.315 | 0.135 | 0.194
15 | H3255 | 1.01 | 0.824 | 0.588 | 0.288 | 0.247 | 0.759 | 0.721 | 0.423 | 0.233 | 0.236 | 0.976 | 0.425 | 0.716 | 0.334 | 0.949 | 0.765 | 0.669 | 0.387 | 0.211 | 0.17
16 | HARA | 0.563 | 0.293 | 0.263 | – | 0.261 | 0.106 | 0.104 | 0.0889 | 0.11 | 0.0872 | 0.973 | 0.91 | – | 0.496 | 0.685 | 0.743 | 0.662 | 0.271 | 0.117 | 0.375
17 | HCC-15 | 1.46 | 1.23 | 1.18 | 1.09 | 1.24 | 0.673 | 0.453 | 0.39 | 0.341 | 0.174 | 1.07 | 1.21 | – | 0.885 | 0.347 | 0.377 | 0.274 | 0.339 | 0.161 | 0.66
18 | HCC-44 | 0.961 | 0.995 | 0.947 | 1.05 | 1.12 | 1.31 | 1.15 | – | 0.778 | 0.458 | – | – | – | – | 1.29 | 1.23 | 0.989 | 1.07 | 0.524 | –
19 | HCC-78 | 0.797 | 0.602 | 0.541 | 0.424 | 0.415 | 0.584 | 0.373 | 0.401 | 0.379 | 0.238 | 0.561 | 0.555 | 0.499 | 0.344 | – | – | – | – | – | 0.365
20 | HCC-366 | – | 0.307 | 0.147 | 0.232 | 0.169 | 0.102 | 0.114 | 0.144 | 0.0752 | 0.0557 | 0.971 | 0.961 | 0.844 | 0.856 | – | – | – | – | – | 1.03
